{
  "source": "paper PMC11784145",
  "about": "“Efficacy and in vitro pharmacological assessment of novel N-hydroxypyridinediones as hepatitis B virus ribonuclease H inhibitors” (Antimicrobial Agents and Chemotherapy, 2024)",
  "key": {"[1]": {"system": "HBV replication (HBV plus-polarity DNA strand)", "test": "HBV replication inhibition, strand preferential qPCR in hepDES19 cells", "type": "cell-based, hepatitis B virus", "method": "HBV replication inhibition was measured in hepDES19 cells following 72 h compound exposure without compound replenishment. EC50 values were determined by HBV plus-polarity strand suppression using a strand preferential qPCR assay, as described previously ([28]). Three or more replicate values were obtained on different days."}, "[2]": {"test": "Microsome stability", "type": "in vitro ADME, human", "conditions": "human, microsomes", "method": "Human liver microsomes (gender pooled, 50 individuals) were purchased from BioIVT and stored at −80°C until use. […] Reactions were initiated by addition of 1.2 mM NADPH. […] Microsomal proteins were pelleted at 4,000 × g and the supernatant was analyzed via LCMS/MS. […] The ln percent remaining values were plotted against time, the negative slope was taken (k), and compound half-life (t1/2) was determined using ln2/k. Intrinsic clearance (Clint [µL/min/mg]) was calculated by (V × ln2)/t1/2, where V is the incubation volume (µL) divided by the protein concentration in the reaction (mg) ([31])."}, "[3]": {"test": "Parallel artificial membrane permeability assay (PAMPA)", "type": "in vitro ADME", "method": "Compound Papp values were determined by normalizing the experimental compound absorbance to the compounds’ absorbances at equilibrium, membrane porosity, buffer volume, and time (s). Two or more replicate assays were obtained on separate days for each pH."}, "[4]": {"system": "MDCK-MDR1 cells", "test": "MDCK-MDR1 permeability assay", "type": "in vitro ADME", "conditions": "MDCK-MDR1 cells, 10 µM compound, 2 h; actively effluxed if >2", "method": "MDCK-MDR1 cells were seeded on 96-well, high protein binding immobilon-P membrane plates (Millipore Sigma) at 2.4 × 10^4 cells per well for 4 days. Media were then decanted, and the cells were equilibrated with Hanks balanced salt solution (HBSS) supplemented with 10 mM CaCl2 and 1 mM MgCl2 for 1 h. Compound (10 µM) was then added to the apical side to assess active transport and to the basolateral side to assess active efflux. The cells were incubated with compound for 2 h with shaking at 37°C. Samples (50 µL) were retrieved from the recipient wells and mixed with 150 µL acetonitrile (ACN) and internal standard (1:1 of 200 ng/mL chloridazon:enalapril). Samples were pelleted at 4,000 × g and the supernatant was analyzed by liquid-chromatography/tandem mass spectrometry (LCMS/MS) analyses. […]. Active efflux was determined by Papp B/A/Papp A/B.\nTight junction formation was assessed by lucifer yellow permeation immediately following sample retrieval. Briefly, lucifer yellow (10 µM) was added to the apical wells and HBSS was added to the basolateral wells for 1 h with shaking at 37°C, after which sample was collected from the basolateral side and read on a Biotek Synergy HTX multi-mode plate reader with 485/20 excitation and 520/20 emission filters defined by the Center Wavelength/band-pass values. The percent lucifer yellow fluorescence was determined by subtracting the HBSS relative fluorescent units (RFU) from the sample RFU and normalizing to the lucifer yellow positive control RFU. Lucifer yellow permeation was determined to be acceptable if ≤3%."}, "[5]": {"biological_target": "T1, human ribonuclease H1 (huRNase H1) (Homo sapiens, UniProt O60930)", "T1 construct": "made in house; host or cells: Escherichia coli", "T1 sequence (O60930 1-286)": "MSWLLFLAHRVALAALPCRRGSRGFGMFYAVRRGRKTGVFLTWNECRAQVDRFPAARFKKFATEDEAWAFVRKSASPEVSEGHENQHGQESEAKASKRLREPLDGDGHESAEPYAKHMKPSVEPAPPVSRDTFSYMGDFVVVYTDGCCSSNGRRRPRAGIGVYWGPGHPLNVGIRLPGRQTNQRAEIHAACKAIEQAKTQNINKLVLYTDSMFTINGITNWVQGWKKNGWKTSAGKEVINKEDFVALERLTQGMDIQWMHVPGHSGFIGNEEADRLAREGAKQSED", "test": "Human RNase H1 inhibition, fluorescent biochemical assay", "method": "Recombinant human ribonuclease H1 (huRNase H1) was expressed in Escherichia coli and purified by nickel affinity chromatography, as described previously ([30]). […] The heteroduplex substrate was prepared, as described by Ponzar et al. ([30]). Reactions were initiated by the addition of MgCl2 (5 mM final) and were performed on a Biotek Synergy HTX multi-mode plate reader at 28°C.\nMaximum rates of fluorescence increase were calculated using the Biotek Gen5 v3.15 software and percentage activity was determined for each compound concentration by subtracting rates from no enzyme reactions and normalizing to DMSO reactions. […] Reactions were performed at least three times on separate days."}, "[6]": {"system": "HepDES19 cells", "conditions": "read-out: HepDES19 CC50; 72 h, MTS; highest concentration tested 100 µM; mean ± SD"}, "[7]": {"test": "Solubility limit, turbidimetric assay", "type": "physicochemical", "conditions": "upper limit 200 µM", "method": "Solubility limits were determined by a turbidimetric assay, as described ([27]), with the solubility limit being defined as the compound concentration where light scattering began to rise. Two or more replicate assays were performed for each compound at each pH on different days."}},
  "data": [
    {"smiles": "CC(=NOCc1ccc(F)cc1F)c1c(C)cc(=O)n(O)c1O", "note": "[Compound 1464]", "values": [
      {"measurement": "HepDES19 SI (CC50/EC50)", "setting": "[1]", "result": 281},
      {"measurement": "EC50", "setting": "[1]; 72 h exposure, HBV plus-polarity strand suppression, highest concentration tested 100 µM, mean ± SD, read-out: HepDES19 EC50", "result": "0.188 ± 0.063", "unit": "µM"},
      {"measurement": "Half-life", "setting": "[2]", "result": ">30", "unit": "min"},
      {"measurement": "Avg Papp (PAMPA)", "setting": "[3]; FeSSIF pH 5", "result": 36.2, "unit": "×10⁻⁶ cm/s"},
      {"measurement": "Interpretation (PAMPA Papp)", "setting": "[3]; FeSSIF pH 5", "result": "H (H: Papp > 1*10-6)"},
      {"measurement": "Papp 1 (PAMPA)", "setting": "[3]; FeSSIF pH 5, replicate 1", "result": 14.4, "unit": "×10⁻⁶ cm/s"},
      {"measurement": "Papp 2 (PAMPA)", "setting": "[3]; FeSSIF pH 5, replicate 2", "result": 50.1, "unit": "×10⁻⁶ cm/s"},
      {"measurement": "Papp 3 (PAMPA)", "setting": "[3]; FeSSIF pH 5, replicate 3", "result": 44.2, "unit": "×10⁻⁶ cm/s"},
      {"measurement": "Avg Papp (PAMPA)", "setting": "[3]; pH 7.4", "result": 2.49, "unit": "×10⁻⁶ cm/s"},
      {"measurement": "Interpretation (PAMPA Papp)", "setting": "[3]; pH 7.4", "result": "H (H: Papp > 1*10-6)"},
      {"measurement": "Papp 1 (PAMPA)", "setting": "[3]; pH 7.4, replicate 1", "result": 2.62, "unit": "×10⁻⁶ cm/s"},
      {"measurement": "Papp 2 (PAMPA)", "setting": "[3]; pH 7.4, replicate 2", "result": 2.31, "unit": "×10⁻⁶ cm/s"},
      {"measurement": "Papp 3 (PAMPA)", "setting": "[3]; pH 7.4, replicate 3", "result": 2.3, "unit": "×10⁻⁶ cm/s"},
      {"measurement": "Papp 4 (PAMPA)", "setting": "[3]; pH 7.4, replicate 4", "result": 2.73, "unit": "×10⁻⁶ cm/s"},
      {"measurement": "Efflux Ratio (Papp B-A/A-B)", "setting": "[4]", "result": 1.04},
      {"measurement": "Selectivity of HBV replication inhibition over huRNase H1 (huRNase H1 IC50 versus HBV EC50)", "setting": "[5]", "result": "at least 10 fold"},
      {"measurement": "CC50", "setting": "[6]", "result": "63.6 ± 27", "unit": "µM"},
      {"measurement": "Average Sol (solubility limit)", "setting": "[7]; pH 5 (fed simulated intestinal fluid)", "result": "> 200", "unit": "µM"},
      {"measurement": "Sol 1 (solubility limit)", "setting": "[7]; pH 5, replicate 1", "result": "> 200", "unit": "µM"},
      {"measurement": "Sol 2 (solubility limit)", "setting": "[7]; pH 5, replicate 2", "result": "> 200", "unit": "µM"},
      {"measurement": "Sol 3 (solubility limit)", "setting": "[7]; pH 5, replicate 3", "result": "> 200", "unit": "µM"},
      {"measurement": "Average Sol (solubility limit)", "setting": "[7]; pH 6.5 (fasted simulated intestinal fluid)", "result": "> 200", "unit": "µM"},
      {"measurement": "Sol 1 (solubility limit)", "setting": "[7]; pH 6.5, replicate 1", "result": "> 200", "unit": "µM"},
      {"measurement": "Sol 2 (solubility limit)", "setting": "[7]; pH 6.5, replicate 2", "result": "> 200", "unit": "µM"},
      {"measurement": "Average Sol (solubility limit)", "setting": "[7]; pH 7.4 (DMEM-F12 with 10% FBS)", "result": "> 200", "unit": "µM"},
      {"measurement": "Sol 1 (solubility limit)", "setting": "[7]; pH 7.4, replicate 1", "result": "> 200", "unit": "µM"},
      {"measurement": "Sol 2 (solubility limit)", "setting": "[7]; pH 7.4, replicate 2", "result": "> 200", "unit": "µM"}
    ]}
  ]
}
